Data set [1] is described as follows: in vitro. The data set is classed as cell-based. The note with it: human, read-out: CC50 GALHEPG2. As for the experimental part:
The compound of Formula I and compounds 1, 2 and 6 were tested in a high-throughput 384-well assay format for cytotoxicity in galactose-adapted HepG2 cells (human liver carcinoma cell line).
(§1) Cells were diluted in media (DMEM (11966), 10% FBS, 1% NEAA, 0.2% Galactose, 1% Pyruvate, 1% Glutamax, 1% PSG) to 16.6K cells/mL and plated at 90 uL/well into 384 well poly-D-lysine coated assay plates and placed in an incubator at 37° C. and 5% CO2. Compounds were serially diluted (1:3) in 100% DMSO in 384-well plates in quadruplicate. DMSO and 2 mM Puromycin were included as negative and positive controls respectively. 24 hours after cell plating, a 384 channel pipettor was used to transfer 0.4 uL from the compound plate to the assay plate. Assay plates were returned to the incubator. After 5 days, assay plates were washed with 80 uL/well of PBS before addition of 20 μL of Cell Titer Glo. Assay plates were read on the Envision plate reader. […] CC50 values were calculated in Accord (on-line tool) using a one-site dose-response model to generate sigmoidal curve fits.

In a further data set the test system is HRVc15 replicon. Description: HRVc15 HeLa replicon EC50. The data set is classed as cell-based, human rhinovirus. The settings on record: for EC50: Human rhinovirus sp., HRV15, HRVc15 replicon in H1-HeLa cells, 48 hrs, luciferase, read-out: HRV15 Rep EC50. As for the experimental part: First, HRV replicon RNA is prepared. 5 μg of DNA Template (HRVc15 or HRVc25) is linearized with 2 μL of MluI enzyme in NEB buffer-3 in a final volume of 25 μL for 3 hours at 37° C. Following incubation, linearized DNA is purified on a PCR purification column and the following in vitro transcription is performed using the following conditions: 10 μL of RiboMAX Express T7 2× buffer, 1-8 μL of linear DNA template (1 μg), 0-7 μL nuclease free water, 2 μL enzyme mix T7 express. The final volume of 20 μL is mixed and incubated at 37° C. for 30 min. Following incubation, 1 μL of RQ1 RNase free DNase is added and the mixture is incubated at 37° C. for 15 min. The resulting RNA is then purified with the MegaClear Kit (Gibco Life Technologies Cat #11835-030) and is eluted two times with 50 μL of elution buffer at 95° C. H1-HeLa cells cultured in complete RPMI 1640 media containing 10% heat-inactivated FBS and 1% Penicillin/Streptomycin are seeded into T-225 flasks at a concentration of 2E6 cells/flask a day prior to transfection and are incubated at 37° C./5% CO2 overnight. On the day of transfection, cells are trypsinized following standard cell culture protocols and are washed two times with PBS. Following washes, cells are resuspended at a concentration of 1E7 cells/mL in PBS and the suspension is stored on wet ice. Electroporation is used to introduce replicon RNA into the H1-HeLa cells. A final volume of 10 μL containing 10 μg of replicon c15 or 1 μg of c25 replicon RNA, respectively, are pipetted into a 4 mm electroporation cuvette. The H1-HeLa cell stock is mixed by gently swirling and 0.5 mL of the cell stock previously prepared is transferred into the cuvette containing the replicon RNA. The combined solution is flicked to mix. Following mixing, cells are immediately electroporated using the following settings: 900V, 25 uF, infinite resistance, 1 pulse. Cuvettes are rested on ice for 10 min. Following the 10 min incubation, add 19 mL of ambient temperature, phenol red-free and antibiotic-free RPMI 1640 containing 10% heat-inactivated FBS per electroporation. 150 μL (4E4 cells) of the electroporated cell suspension are seeded per well into a 96 well clear-bottom, white cell culture plate, and are incubated at 25° C. for 30 min. […] Replicon activity is then measured by a Renilla-Glo Luciferase Assay system. Prior to signal quantification, plates are removed from incubators and are allowed to equilibrate to 25° C. after 50 uL is removed from each well. […] Plates are then incubated for 20 min at 25° C. under gentle agitation and luciferase signal are determined with a 0.1 second detection setting using an EnVision luciferase quantification reader.

Another data set in a line: PHH cytotoxicity assay. The data set is classed as cell-based. The note with it: human, fresh primary hepatocytes (PHH), daily replacement. As for the experimental part:
Three-fold serial dilutions of the compound of Formula I and compounds 1, 2 and 6 were prepared in duplicate in 96-well plates starting at a concentration of 50 or 100 μM. Fresh human hepatocytes were ordered in a 96-well plate format from BioIVT (Baltimore, Maryland, Cat #F/M91565) with a Matrigel overlay or Invitrogen (Durham, North Carolina, Cat #HMFY96) with a Geltrex overlay. Donor profiles were limited to 4-65-year old with minimal alcohol consumption. PHH cells were allowed to recover 4-24 hours in complete medium with added supplement supplied by the vendor at 37° C. in a 5% CO2 incubator with 90% humidity before treated with compounds. Serial-diluted compounds and complete medium were replaced (130 μL/well) daily for 5 days, with final amount of DMSO equal to 0.5%. On Day 5, medium was removed from the assay plates and cell viability was determined by the addition of 100 μL Cell-Titer Glo viability reagents (Promega, Madison, WI, Cat #G7573) added to each well. Following 5-10 minutes incubation at room temperature, luminescence signal was quantified on a Victor Luminescence plate reader (Perkin-Elmer, Waltham, MA).

A short description of data set [2]: in vitro. The settings on record: human, read-out: CC50 GALPC3. The data set is classed as cell-based. As for the experimental part:
as §1, with “Compounds were tested in a high-throughput 384-well assay format for cytotoxicity in galactose-adapted PC3 cells (human prostate cancer cell line). Cells” for “Cells”, “plates are” for “plates were”

Turning to `CCOC(=O)[C@H](C)NP(=O)(OC[C@@]1(C#N)O[C@@H](c2ccc3c(N)ncnn23)[C@H](O)[C@@H]1O)Oc1ccccc1` (stereo partly drawn) [Compound 1, reference compound], in the data set “in vitro [1]”, the 50% cytotoxic concentration (CC50) at 5 days was greater than 44.4 µM.

Turning to `CCC(CC)COC(=O)[C@H](C)NP(=O)(OC[C@@]1(C#N)O[C@@H](c2ccc3c(N)ncnn23)[C@H](O)[C@@H]1O)Oc1ccccc1` (stereo partly drawn) [Compound 2, reference compound], in the data set with HRVc15 replicon, the EC50 worked out at 0.021 µM. Moreover, the half-maximal cytotoxic concentration (CC50) at 5 days in “in vitro [1]” is greater than 44.4 µM.

On to `CCC(CC)COC(=O)[C@H](C)N[P@](=O)(OC[C@@]1(C#N)O[C@@H](c2ccc3c(N)ncnn23)[C@H](O)[C@@H]1O)Oc1ccccc1` [Compound 6, 2-ethylbutyl ((S)-(((2R,3S,4R,5S)-5-(4-aminopyrrolo[2,1-f][1,2,4]triazin-7-yl)-2-cyano-3,4-dihydroxytetrahydrofuran-2-yl)methoxy)(phenoxy)phosphoryl)alaninate], for which the EC50 in the data set on HRVc15 replicon came out at 0.017 µM. For the same compound, the results for the CC50 at 5 days in the data set “PHH cytotoxicity assay”, in the data set “in vitro [1]” and in “in vitro [2]” were 14.1 µM, greater than 88.9 µM and greater than 83.5 µM, respectively.

As to `C[C@H](N[P@](=O)(OC[C@@]1(C#N)O[C@@H](c2ccc3c(N)ncnn23)[C@H](O)[C@@H]1O)Oc1ccccc1)C(=O)OC1CCCCC1` [Formula I, cyclohexyl ((S)-(((2R,3S,4R,5S)-5-(4-aminopyrrolo[2,1-f][1,2,4]triazin-7-yl)-2-cyano-3,4-dihydroxytetrahydrofuran-2-yl)methoxy)(phenoxy)phosphoryl)-L-alaninate], the “times more potent compared to compound 2, HRV15 Rep” value in the data set on HRVc15 replicon (EC50 ratio vs compound 2) is recorded as “about 2.3 times”. The EC50 in the data set with HRVc15 replicon came to 0.009 µM. The CC50 at 5 days in the data set “PHH cytotoxicity assay” was 21.2 µM; in the data set “in vitro [1]” it was greater than 88.9 µM; in “in vitro [2]”, greater than 44.4 µM.

Source of the values: patent US20250034186A1, “ANTIVIRAL COMPOUNDS” (priority 2020, published 2025).
